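1) Cells in 96-well plates. 2) Compound, 48 h, 5 concentrations. 3) Linear interpolation between surrounding doses. 4) Unreached endpoint = highest concentration. GI50 marks 50% less growth.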 Active and inactive are the calls of the source. Cut-off read from the data, not from the text of the source: active = GI50 up to about 1.1 µM and inactive = higher.
Key:
Experiment in all cases: inhibition of tumour cell growth, NCI panel, 48 h
SNB-19 = system: SNB-19
MOLT-4 = system: MOLT-4
MCF7 = system: MCF7
EKVX = system: EKVX
COLO 205 = system: COLO 205
CAKI-1 = system: CAKI-1
HCT-15 = system: HCT-15
786-0 = system: 786-0
HCC 2998 = system: HCC 2998
LOX IMVI = system: LOX IMVI
SF-539 = system: SF-539
OVCAR-4 = system: OVCAR-4
IGROV-1 = system: IGROV-1
PC-3 = system: PC-3
SF-295 = system: SF-295
U-251 = system: U-251
HOP-92 = system: HOP-92
HOP-62 = system: HOP-62
HT-29 = system: HT-29
BT-549 = system: BT-549
SF-268 = system: SF-268
UACC-62 = system: UACC-62
SK-MEL-2 = system: SK-MEL-2
A498 = system: A498
SW-620 = system: SW-620
MDA-MB-435 = system: MDA-MB-435
SR = system: SR
SN12C = system: SN12C
T47D = system: T47D
UO-31 = system: UO-31
M14 = system: M14
TK-10 = system: TK-10
SK-OV-3 = system: SK-OV-3
MDA-MB-231 = system: MDA-MB-231
SNB-75 = system: SNB-75
NCI-H226 = system: NCI-H226
MDA-N = system: MDA-N
OVCAR-5 = system: OVCAR-5
A549 = system: A549
DU-145 = system: DU-145
OVCAR-8 = system: OVCAR-8
OVCAR-3 = system: OVCAR-3
Hs-578T = system: Hs-578T
NCI-H23 = system: NCI-H23
NCI-H522 = system: NCI-H522
HL-60 = system: HL-60
K562 = system: K562
SK-MEL-28 = system: SK-MEL-28
NCI-H460 = system: NCI-H460
ACHN = system: ACHN
HCT-116 = system: HCT-116
SK-MEL-5 = system: SK-MEL-5
NCI/ADR-RES = system: NCI/ADR-RES
UACC-257 = system: UACC-257
KM12 = system: KM12
RXF 393 = system: RXF 393
RPMI-8226 = system: RPMI-8226
Malme-3M = system: Malme-3M
CCRF-CEM = system: CCRF-CEM
DLD-1 = system: DLD-1
DMS-114 = system: DMS-114
LXFL 529 = system: LXFL 529
DMS-273 = system: DMS-273
KM-20L2 = system: KM-20L2
XF498 = system: XF498

With CN(CCCNC(=O)c1cc(-c2ccccc2)nc2ccccc12)CCCNC(=O)c1cc(-c2ccccc2)nc2ccccc12 the GI50 (SNB-19) was 5.97 µM (inactive), the GI50 (MOLT-4) was 2.45 µM (inactive) and the GI50 (MCF7) was 1.48 µM (inactive). The GI50 (EKVX) was 6.1 µM (inactive), the GI50 (COLO 205) was 1.79 µM (inactive) and the GI50 (CAKI-1) was 9.16 µM (inactive). The GI50 (HCT-15) was 4 µM, the GI50 (786-0) was 1.7 µM (inactive) and the GI50 (HCC 2998) was 1.93 µM (inactive). The GI50 (LOX IMVI) was 1.85 µM (inactive), the GI50 (SF-539) was 2.2 µM (inactive) and the GI50 (OVCAR-4) was 3.54 µM (inactive). The GI50 (IGROV-1) was 4.41 µM (inactive), the GI50 (PC-3) was 3.56 µM (inactive) and the GI50 (SF-295) was 1.77 µM (inactive). For the same molecule, the GI50 (U-251) was 2.04 µM (inactive), the GI50 (HOP-92) was 2.64 µM (inactive) and the GI50 (HOP-62) was 1.82 µM (inactive). For the same molecule, the GI50 (HT-29) was 2 µM (inactive), the GI50 (BT-549) was 12.9 µM (inactive) and the GI50 (SF-268) was 5.32 µM (inactive). The GI50 (UACC-62) was 2.07 µM (inactive), the GI50 (SK-MEL-2) was 1.96 µM (inactive) and the GI50 (A498) was 4.41 µM (inactive). The GI50 (SW-620) was 1.85 µM (inactive), the GI50 (MDA-MB-435) was 1.76 µM (inactive) and the GI50 (SR) was 3.36 µM (inactive). For the same molecule, the GI50 (SN12C) was 5.85 µM (inactive), the GI50 (T47D) was 2.95 µM (inactive) and the GI50 (UO-31) was 2.31 µM (inactive). For the same molecule, the GI50 (M14) was 1.71 µM (inactive), the GI50 (TK-10) was 4.45 µM (inactive) and the GI50 (SK-OV-3) was 13 µM (inactive). For the same molecule, the GI50 (MDA-MB-231) was 2.44 µM (inactive), the GI50 (SNB-75) was 2.33 µM (inactive) and the GI50 (NCI-H226) was 3.81 µM (inactive). The GI50 (MDA-N) was 1.8 µM (inactive), the GI50 (OVCAR-5) was 2.28 µM (inactive) and the GI50 (A549) was 3.96 µM (inactive). The GI50 (DU-145) was 3.58 µM (inactive), the GI50 (OVCAR-8) was 2.32 µM (inactive) and the GI50 (OVCAR-3) was 3.27 µM (inactive). For the same molecule, the GI50 (Hs-578T) was 4.17 µM (inactive), the GI50 (NCI-H23) was 6.35 µM (inactive) and the GI50 (NCI-H522) was 1.77 µM (inactive). The GI50 (HL-60) was 2.19 µM (inactive), the GI50 (K562) was 1.99 µM (inactive) and the GI50 (SK-MEL-28) was 1.83 µM (inactive). The GI50 (NCI-H460) was 1.78 µM (inactive), the GI50 (ACHN) was 2.81 µM (inactive) and the GI50 (HCT-116) was 1.79 µM (inactive). For the same molecule, the GI50 (SK-MEL-5) was 1.66 µM (inactive), the GI50 (NCI/ADR-RES) was 2.84 µM (inactive) and the GI50 (UACC-257) was 1.78 µM (inactive). For the same molecule, the GI50 (KM12) was 2.02 µM (inactive), the GI50 (RXF 393) was 4.62 µM (inactive) and the GI50 (RPMI-8226) was 2.8 µM (inactive). The GI50 (Malme-3M) was 1.94 µM (inactive) and the GI50 (CCRF-CEM) was 3.73 µM (inactive).

For COc1ccc(CC(=O)NCCc2ccc(OC)c(OC)c2)cc1Br, the GI50 (SNB-19) was > 100 µM (inactive), the GI50 (MOLT-4) was > 100 µM (inactive) and the GI50 (EKVX) was > 100 µM (inactive). The GI50 (COLO 205) was > 100 µM (inactive), the GI50 (DLD-1) was > 100 µM (inactive) and the GI50 (CAKI-1) was > 100 µM (inactive). The GI50 (786-0) was > 100 µM (inactive), the GI50 (HCC 2998) was > 100 µM (inactive) and the GI50 (LOX IMVI) was > 100 µM (inactive). For the same molecule, the GI50 (DMS-114) was > 100 µM (inactive), the GI50 (SF-539) was > 100 µM (inactive) and the GI50 (OVCAR-4) was > 100 µM (inactive). The GI50 (IGROV-1) was > 100 µM (inactive), the GI50 (SF-295) was > 100 µM (inactive) and the GI50 (U-251) was > 100 µM (inactive). For the same molecule, the GI50 (HOP-92) was > 100 µM (inactive), the GI50 (HOP-62) was > 100 µM (inactive) and the GI50 (HT-29) was > 100 µM (inactive). The GI50 (LXFL 529) was > 100 µM (inactive), the GI50 (SF-268) was > 100 µM (inactive) and the GI50 (UACC-62) was 62.1 µM (inactive). The GI50 (SK-MEL-2) was > 100 µM (inactive), the GI50 (DMS-273) was > 100 µM (inactive) and the GI50 (A498) was > 100 µM (inactive). The GI50 (SW-620) was > 100 µM (inactive), the GI50 (SR) was > 100 µM (inactive) and the GI50 (SN12C) was > 100 µM (inactive). The GI50 (UO-31) was > 100 µM (inactive), the GI50 (TK-10) was > 100 µM (inactive) and the GI50 (SK-OV-3) was > 100 µM (inactive). The GI50 (NCI-H226) was 41.5 µM (inactive), the GI50 (OVCAR-5) was 57.1 µM (inactive) and the GI50 (A549) was > 100 µM (inactive). For the same molecule, the GI50 (KM-20L2) was > 100 µM (inactive), the GI50 (OVCAR-8) was > 100 µM (inactive) and the GI50 (NCI-H23) was > 100 µM (inactive). For the same molecule, the GI50 (NCI-H522) was > 100 µM (inactive), the GI50 (XF498) was 38.7 µM (inactive) and the GI50 (HL-60) was > 100 µM (inactive). The GI50 (K562) was > 100 µM (inactive), the GI50 (SK-MEL-28) was > 100 µM (inactive) and the GI50 (NCI-H460) was > 100 µM (inactive). For the same molecule, the GI50 (ACHN) was > 100 µM (inactive), the GI50 (UACC-257) was > 100 µM (inactive) and the GI50 (KM12) was > 100 µM (inactive). For the same molecule, the GI50 (RXF 393) was > 100 µM (inactive), the GI50 (Malme-3M) was > 100 µM (inactive) and the GI50 (CCRF-CEM) was > 100 µM (inactive).

In the case of CCC/C=C/C=C/C(=O)OC1/C(=C/C(=O)OC)CC2CC(C(C)O)OC(=O)CC(O)CC3CC(OC(C)=O)C(C)(C)C(O)(CC4C/C(=C/C(=O)OC)CC(/C=C/C(C)(C)C1(O)O2)O4)O3 (stereo not drawn), the GI50 (SNB-19) is reported as > 12.5 µM (inactive), the GI50 (DLD-1) is reported as > 10.9 µM (inactive) and the GI50 (786-0) is reported as 6.25 µM (inactive). For the same molecule, the GI50 (SF-539) was > 12.5 µM (inactive), the GI50 (PC-3) was 5.32 µM (inactive) and the GI50 (BT-549) was 8.57 µM (inactive). The GI50 (SF-268) was 6.95 µM (inactive), the GI50 (DMS-273) was 10.6 µM (inactive) and the GI50 (A498) was 4.18 µM (inactive). The GI50 (MDA-MB-435) was 8.47 µM (inactive), the GI50 (SR) was > 12.5 µM (inactive) and the GI50 (T47D) was 7.01 µM (inactive). For the same molecule, the GI50 (M14) was > 11 µM (inactive), the GI50 (TK-10) was > 12.5 µM (inactive) and the GI50 (MDA-MB-231) was 6.22 µM (inactive). For the same molecule, the GI50 (NCI-H226) was > 12.5 µM (inactive), the GI50 (MDA-N) was 7.53 µM (inactive) and the GI50 (OVCAR-5) was > 12.5 µM (inactive). For the same molecule, the GI50 (DU-145) was > 12.5 µM (inactive), the GI50 (Hs-578T) was 6.07 µM (inactive) and the GI50 (NCI-H23) was 9.89 µM (inactive). The GI50 (NCI-H522) was > 12.5 µM (inactive), the GI50 (XF498) was 3.62 µM (inactive) and the GI50 (SK-MEL-28) was 9.98 µM (inactive). The GI50 (ACHN) was 3.34 µM (inactive) and the GI50 (RPMI-8226) was 9.98 µM (inactive).

Reference: ChEMBL document CHEMBL1201862, “PubChem BioAssay data set” (2004)
